row,Compound,melting point [°C]
1,"COc1cc(-c2ccc3ncc(NC(=O)Nc4c(C)noc4C)nc3n2)ccc1O [Compound 27, 1-(3,5-Dimethyl-isoxazol-4-yl)-3-[6-(4-hydroxy-3-methoxy-phenyl)-pyrido[2,3-b]pyrazin-3-yl]-urea]",249 to 252
2,"CCNC(=S)Nc1ccc2ncc(-c3cccc(OC(C)C)c3)nc2n1 [Compound 127, 1-Ethyl-3-[3-(3-isopropoxy-phenyl)-pyrido[2,3-b]pyrazin-6-yl]-thiourea]",227
3,"CCNC(=O)Nc1ccc2ncc(-c3cccc(C)c3C)nc2n1 [Compound 107, 1-[3-(2,3-Dimethyl-phenyl)-pyrido[2,3-b]pyrazin-6-yl]-3-ethyl-urea]",260
4,"Cc1cc(-c2ccc3ncc(NC(=O)NCCc4ccccc4)nc3n2)cc(C)c1O [Compound 588, 1-[6-(4-Hydroxy-3,5-dimethyl-phenyl)-pyrido[2,3-b]pyrazin-3-yl]-3-phenethyl-urea]",267 to 269
5,"CCNC(=O)Nc1ccc2ncc(-c3ccccc3OCC)nc2n1 [Compound 102, 1-[3-(2-Ethoxy-phenyl)-pyrido[2,3-b]pyrazin-6-yl]-3-ethyl-urea]",220 to 222
6,"COc1cc(Nc2cnc3ccc(NC(=S)NC(C)(C)C)nc3n2)cc(OC)c1OC [Compound 694, 1-tert-Butyl-3-[3-(3,4,5-trimethoxy-phenylamino)-pyrido[2,3-b]pyrazin-6-yl]-thiourea]",218 to 220
7,"COc1ccc(-c2ccc3ncc(NC(=O)Nc4ccccc4)nc3n2)cc1OC [Compound 580, 1-[6-(3,4-Dimethoxy-phenyl)-pyrido[2,3-b]pyrazin-3-yl]-3-phenyl-urea]",248 to 251
8,"CCNC(=S)Nc1ccc2ncc(Nc3cccc(Cl)c3)nc2n1 [Compound 329, 1-[3-(3-Chloro-phenylamino)-pyrido[2,3-b]pyrazin-6-yl]-3-ethyl-thiourea]",> 220
9,"COc1cc(-c2ccc3ncc(NC(=O)Nc4cccnc4)nc3n2)ccc1O [Compound 611, 1-[6-(4-Hydroxy-3-methoxy-phenyl)-pyrido[2,3-b]pyrazin-3-yl]-3-pyridin-3-yl-urea]",245 to 248
10,"CCNC(=O)Nc1cnc2ccc(N3CCCN(C)CC3)nc2n1 [Compound 233, 1-Ethyl-3-[6-(4-methyl-[1,4]diazepan-1-yl)-pyrido[2,3-b]pyrazin-3-yl]-urea]",199 to 201
11,"CCNC(=S)Nc1cnc2ccc(Nc3cccc(OC)c3)nc2n1 [Compound 221, 1-Ethyl-3-[6-(3-methoxy-phenylamino)-pyrido[2,3-b]pyrazin-3-yl]-thiourea]",189

# Continued, values first:
row,melting point [°C],Compound
1,272 to 273,"COc1cc(-c2ccc3ncc(NC(=O)NC4CCC(C)CC4)nc3n2)ccc1O (stereo not shown) [Compound 612, 1-[6-(4-Hydroxy-3-methoxy-phenyl)-pyrido[2,3-b]pyrazin-3-yl]-3-(4-methyl-cyclohexyl)-urea]"
2,177,"CC(=O)Nc1ccc2ncc(Nc3cccc(OC(C)C)c3)nc2n1 [Compound 36, N-[3-(3-Isopropoxy-phenylamino)-pyrido[2,3-b]pyrazin-6-yl]-acetamide]"
3,233 to 236,"COc1cc(-c2ccc3ncc(NC(=O)NCCCc4ccccc4)nc3n2)ccc1O [Compound 629, 1-[6-(4-Hydroxy-3-methoxy-phenyl)-pyrido[2,3-b]pyrazin-3-yl]-3-(3-phenyl-propyl)-urea]"
4,261 to 262,"C=CCNC(=S)Nc1cnc2ccc(-c3ccc(O)c(OC)c3)nc2n1 [Compound 521, 1-Allyl-3-[6-(4-hydroxy-3-methoxy-phenyl)-pyrido[2,3-b]pyrazin-3-yl]-thiourea]"
5,272,"CCNC(=O)Nc1cnc2ccc(Nc3cc(Cl)c(O)c(Cl)c3)nc2n1 [Compound 15, 1-[6-(3,5-Dichloro-4-hydroxy-phenylamino)-pyrido[2,3-b]pyrazin-3-yl]-3-ethyl-urea]"

# Reference: US8536332B2, “Modulating signal transduction pathways with substituted pyridol [2,3-b] pyrazines” (Aeterna Zentaris GmbH, priority 2007, dated 2013)
